Consider eight compounds from patent US9249102B2 (priority 2012, dated 2016).

Data set [1] deals with microfilaria of Dirofilaria immitis. Nature of the data set: Method F: microfilaria of Dirofilaria immitis, survival at 24 hours.
Data set [2] relates to Cooperia oncophora. Nature of the data set: Method C: Cooperia oncophora L1 larvae in vitro. To be noted: 96 h, read-out: inhibition of motility.
The subject of data set [3] is Haemonchus contortus. Nature of the data set: Method A: Haemonchus contortus L1 larvae, microtitre plate screen. To be noted: 96 h, read-out: motility inhibition.
For data set [4], the system named is Haemonchus contortus. Description: Method D: Haemonchus contortus in vivo in Mongolian jirds. The arrangement: species or system Mongolian jirds (Meriones unguiculatus). Particulars: po, 72 h, read-out: reduction in nematode infestation.
The nature of data set [5]: Method G: permeability in the Caco-2/TC7 in vitro model. To be noted: human, Caco-2, pH 6.5. (Caco-2 cells form a polarised layer with tight junctions and transporters.)
Where [6] appears, read: survival of microfilaria at 24 hours.

Like-named read-outs stand apart in the source and are kept apart here.

In data set [1] (setting [6]), `N#Cc1ccc(N[C@H]2CC[C@H](OCC(=O)N3CCN(c4ccc5cc(C(F)(F)F)ccc5n4)CC3)CC2)cc1C(F)(F)F` [Compound 273, 2-[(4-[[4-cyano-3-(trifluoromethyl)phenyl]amino]cyclohexyl)oxy]-1-[4-[6-(trifluoromethyl)quinolin-2-yl]piperazin-1-yl]ethan-1-one] returned an EC50 of under 1 µg/mL. In addition, the inhibition at 5 µg/mL in data set [2] and in data set [3] was at least 90% each time. Also, the inhibition in vivo at 30 mg/kg in data set [4] is over 90%.
For `CN(c1ccc([N+](=O)[O-])c(C(F)(F)F)c1)[C@H]1CC[C@H](OCC(=O)N2CCN(c3ccc4cc(C(F)(F)F)ccc4n3)CC2)CC1` [Compound 245, 2-[[(1r,4r)-4-[methyl[4-nitro-3-(trifluoromethyl)phenyl]amino]cyclohexyl]oxy]-1-[4-[6-(trifluoromethyl)quinolin-2-yl]piperazin-1-yl]ethan-1-one], the concentration giving a half-maximal response (EC50) in data set [1] was under 1 µg/mL. Moreover, the inhibition at 5 µg/mL in data set [2] and in data set [3] was at least 90% in each case. Also, the inhibition in vivo at 30 mg/kg in data set [4] was over 90%.
The compound `N#Cc1ccc(N[C@H]2CC[C@H](OCC(=O)N3CCN(c4ccc5cc(Cl)ccc5n4)CC3)CC2)cc1C(F)(F)F` [Compound 272, 2-[(4-[[4-cyano-3-(trifluoromethyl)phenyl]amino]cyclohexyl)oxy]-1-[4-(6-chloroquinolin-2-yl)piperazin-1-yl]ethan-1-one] showed an EC50 in data set [1] (setting [6]) of under 1 µg/mL. In addition, the inhibition at 5 µg/mL in data set [2] and in data set [3] was at least 90% throughout. Moreover, the inhibition in vivo at 30 mg/kg in data set [4] lay within 70 to 90%.
In the case of `N#Cc1ccc(N[C@H]2CC[C@H](OCC(=O)N3CCN(Cc4nc5cc(C(F)(F)F)ccc5s4)CC3)CC2)cc1C(F)(F)F` [Compound 301], the EC50 in data set [1] was under 0.1 µg/mL. In addition, the inhibition at 5 µg/mL in data set [2] and in data set [3] was at least 90% in each case. The same compound returned a Papp A→B at 20 μM in data set [5] of 9.9 ×10⁻⁶ cm/s.
As for `O=C(CO[C@H]1CC[C@H](Nc2ccc([N+](=O)[O-])c(C(F)(F)F)c2)CC1)N1CCN(Cc2ccc3cc(F)ccc3c2)CC1` [Compound 297, 2-[(4-[[4-nitro-3-(trifluoromethyl)phenyl]amino]cyclohexyl)-oxy]1-[4-(6-fluoronaphthalen-2-ylmethyl)piperazin-1-yl]ethan-1-one], the EC50 in data set [1] (setting [6]) was under 1 µg/mL. For the same compound, the inhibition at 5 µg/mL in data set [2] and in data set [3] was at least 90% in each case. This compound also returned a Papp A→B at 20 μM in data set [5] of 5.7 ×10⁻⁶ cm/s.
`O=C(CO[C@H]1CC[C@H](Nc2ccc([N+](=O)[O-])c(C(F)(F)F)c2)CC1)N1CCN(Cc2cc3cc(Cl)ccc3o2)CC1` [Compound 178, 1-[4-[(5-chloro-1-benzofuran-2-yl)methyl]piperazin-1-yl]-2-[(4-[[4-nitro-3-(trifluoromethyl)phenyl]amino]cyclohexyl)oxy]ethan-1-one] came in with an EC50 in data set [1] (setting [6]) of under 1 µg/mL. Also, the inhibition at 5 µg/mL in data set [2] and in data set [3] was at least 90% each time. The Papp A→B at 20 μM in data set [5] amounted to 4.9 ×10⁻⁶ cm/s.
Turning to `O=C(CO[C@H]1CC[C@H](Nc2ccc([N+](=O)[O-])c(C(F)(F)F)c2)CC1)N1CCN(c2nc3cc(C(F)(F)F)ccc3s2)CC1` [Compound 342, 2-[4-(4-nitro-3-trifluoromethyl-phenylamino)-cyclohexyloxy]-1-[4-(5-trifluoromethyl-benzothiazol-2-yl)-piperazin-1-yl]-ethanone], the inhibition at 5 µg/mL in data set [2] and in data set [3] was at least 90% throughout. In addition, in data set [4], the inhibition in vivo at 30 mg/kg was over 90%.
As for `CN(c1ccc(C#N)c(C(F)(F)F)c1)[C@H]1CC[C@H](OCC(=O)N2CCN(c3ccc4cc(C(F)(F)F)ccc4n3)CC2)CC1` [Compound 283, 2-[(4-[methyl[4-cyano-3-(trifluoromethyl)phenyl]amino]cyclohexyl)-oxy]1-[4-[6-(trifluoromethyl)quinolin-2-yl]-piperazin-1-yl]ethan-1-one], the inhibition at 5 µg/mL in data set [2] and in data set [3] was at least 90% each time. For the same compound, the inhibition in vivo at 30 mg/kg in data set [4] is over 90%.

As a reminder, the EC50 is the midpoint of the concentration-response curve. Read a high EC50 as lower potency in that assay. For orientation: inhibition means the percentage by which the read-out fell short of the control. As a reminder, the Papp A→B is the apparent permeability from the apical to the basolateral side of a cell layer.
